{"source": "ChEMBL document CHEMBL1146095", "about": "“Modeling the preferred shapes of polyamine transporter ligands and dihydromotuporamine-C mimics: shovel versus hoe” (J Med Chem, 2006)", "key": {"[1]": {"system": "Mammalian polyamine transporter", "assay": "Inhibition of [14C]spermidine uptake into polyamine transporter expressed in L1210 cells", "assay_type": "functional, cell-based, Mus musculus"}, "CHO": {"system": "CHO", "assay": "Cytotoxicity against CHO cell line", "assay_type": "functional, cell-based", "conditions": "Cricetulus griseus"}, "[2]": {"assay": "Selectivity for CHO cells over CHO-MG cells", "assay_type": "functional"}, "CHO-MG": {"system": "CHO-MG", "assay": "Cytotoxicity against CHO-MG cell line", "assay_type": "functional, cell-based", "conditions": "Cricetulus griseus"}}, "data": [{"smiles": "CCN(CCCNCCCN)Cc1c2ccccc2cc2ccccc12.Cl.Cl.Cl", "values": [{"measurement": "Ki", "setting": "[1]", "result": 23.5, "unit": "µM"}, {"measurement": "IC50", "setting": "CHO", "result": 5.3, "unit": "µM"}, {"measurement": "Ratio IC50", "setting": "[2]", "result": 0.8}, {"measurement": "IC50", "setting": "CHO-MG", "result": 4, "unit": "µM"}]}]}
